Measurements published in article PMC4858680, “A platinum-based hybrid drug design approach to circumvent acquired resistance to molecular targeted tyrosine kinase inhibitors” (Scientific Reports, 2016).

Key:
[1] = target: ABL1(F317L)-phosphorylated (Homo sapiens, UniProt P00519, F317L); conditions: 10 μM
[2] = target: ABL1(H396P)-phosphorylated (Homo sapiens, UniProt P00519, H396P); conditions: 10 μM
[3] = target: ABL1(F317L)-nonphosphorylated (Homo sapiens, UniProt P00519, F317L); conditions: 10 μM
[4] = target: ABL1(Q252H)-nonphosphorylated (Homo sapiens, UniProt P00519, Q252H); conditions: 10 μM
ABL1-phosphorylated = ABL1-phosphorylated (Homo sapiens, UniProt P00519); conditions: 10 μM
ABL1-nonphosphorylated = ABL1-nonphosphorylated (Homo sapiens, UniProt P00519); conditions: 10 μM
CSF1R = CSF1R (Homo sapiens, UniProt P07333); conditions: 10 μM
[5] = target: ABL1(H396P)-nonphosphorylated (Homo sapiens, UniProt P00519, H396P); conditions: 10 μM
[6] = target: ABL1(Q252H)-phosphorylated (Homo sapiens, UniProt P00519, Q252H); test: biochemical; conditions: read-out: Percent control
[7] = target: ABL1(T315I)-nonphosphorylated (Homo sapiens, UniProt P00519, T315I); test: biochemical; conditions: read-out: Percent control
P-gp = P-gp (Homo sapiens, UniProt P08183); test: in vitro; conditions: dog, MDCK-MDR1, pH 7.4
Chain of P-gp (P08183 whole entry): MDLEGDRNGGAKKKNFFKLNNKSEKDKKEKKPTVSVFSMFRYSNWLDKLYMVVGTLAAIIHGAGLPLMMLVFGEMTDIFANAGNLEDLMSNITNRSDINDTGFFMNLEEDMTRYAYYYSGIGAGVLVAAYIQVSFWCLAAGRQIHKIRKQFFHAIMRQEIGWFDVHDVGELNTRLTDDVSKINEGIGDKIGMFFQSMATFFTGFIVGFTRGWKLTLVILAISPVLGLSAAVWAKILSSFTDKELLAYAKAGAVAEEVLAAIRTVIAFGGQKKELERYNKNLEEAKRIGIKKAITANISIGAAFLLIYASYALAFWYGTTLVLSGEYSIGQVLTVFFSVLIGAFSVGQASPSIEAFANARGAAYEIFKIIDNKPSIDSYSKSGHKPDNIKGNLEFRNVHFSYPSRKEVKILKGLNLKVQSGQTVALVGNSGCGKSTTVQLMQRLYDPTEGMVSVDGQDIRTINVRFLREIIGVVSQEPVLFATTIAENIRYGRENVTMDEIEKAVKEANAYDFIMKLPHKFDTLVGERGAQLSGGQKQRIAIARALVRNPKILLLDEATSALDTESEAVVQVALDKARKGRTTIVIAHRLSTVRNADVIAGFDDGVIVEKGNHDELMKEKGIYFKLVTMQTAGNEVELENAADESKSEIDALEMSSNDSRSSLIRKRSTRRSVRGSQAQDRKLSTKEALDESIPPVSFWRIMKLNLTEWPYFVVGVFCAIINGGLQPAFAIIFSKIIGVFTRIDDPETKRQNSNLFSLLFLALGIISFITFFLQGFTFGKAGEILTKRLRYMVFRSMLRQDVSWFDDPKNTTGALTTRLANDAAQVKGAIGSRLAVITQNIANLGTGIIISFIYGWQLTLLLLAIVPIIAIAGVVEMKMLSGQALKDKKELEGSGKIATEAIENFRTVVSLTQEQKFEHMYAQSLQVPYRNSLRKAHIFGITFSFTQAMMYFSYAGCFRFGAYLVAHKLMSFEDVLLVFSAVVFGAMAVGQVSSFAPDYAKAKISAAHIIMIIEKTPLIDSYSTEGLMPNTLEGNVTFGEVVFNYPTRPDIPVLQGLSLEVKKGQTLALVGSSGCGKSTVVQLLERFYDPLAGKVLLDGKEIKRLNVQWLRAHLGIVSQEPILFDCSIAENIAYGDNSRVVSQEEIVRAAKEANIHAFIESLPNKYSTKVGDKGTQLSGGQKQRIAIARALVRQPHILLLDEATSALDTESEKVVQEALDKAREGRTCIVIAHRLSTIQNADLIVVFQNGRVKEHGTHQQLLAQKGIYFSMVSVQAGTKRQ

ALK = ALK (Homo sapiens, UniProt Q9UM73); test: biochemical; conditions: read-out: Percent control
Chain of ALK (Q9UM73 19-1620): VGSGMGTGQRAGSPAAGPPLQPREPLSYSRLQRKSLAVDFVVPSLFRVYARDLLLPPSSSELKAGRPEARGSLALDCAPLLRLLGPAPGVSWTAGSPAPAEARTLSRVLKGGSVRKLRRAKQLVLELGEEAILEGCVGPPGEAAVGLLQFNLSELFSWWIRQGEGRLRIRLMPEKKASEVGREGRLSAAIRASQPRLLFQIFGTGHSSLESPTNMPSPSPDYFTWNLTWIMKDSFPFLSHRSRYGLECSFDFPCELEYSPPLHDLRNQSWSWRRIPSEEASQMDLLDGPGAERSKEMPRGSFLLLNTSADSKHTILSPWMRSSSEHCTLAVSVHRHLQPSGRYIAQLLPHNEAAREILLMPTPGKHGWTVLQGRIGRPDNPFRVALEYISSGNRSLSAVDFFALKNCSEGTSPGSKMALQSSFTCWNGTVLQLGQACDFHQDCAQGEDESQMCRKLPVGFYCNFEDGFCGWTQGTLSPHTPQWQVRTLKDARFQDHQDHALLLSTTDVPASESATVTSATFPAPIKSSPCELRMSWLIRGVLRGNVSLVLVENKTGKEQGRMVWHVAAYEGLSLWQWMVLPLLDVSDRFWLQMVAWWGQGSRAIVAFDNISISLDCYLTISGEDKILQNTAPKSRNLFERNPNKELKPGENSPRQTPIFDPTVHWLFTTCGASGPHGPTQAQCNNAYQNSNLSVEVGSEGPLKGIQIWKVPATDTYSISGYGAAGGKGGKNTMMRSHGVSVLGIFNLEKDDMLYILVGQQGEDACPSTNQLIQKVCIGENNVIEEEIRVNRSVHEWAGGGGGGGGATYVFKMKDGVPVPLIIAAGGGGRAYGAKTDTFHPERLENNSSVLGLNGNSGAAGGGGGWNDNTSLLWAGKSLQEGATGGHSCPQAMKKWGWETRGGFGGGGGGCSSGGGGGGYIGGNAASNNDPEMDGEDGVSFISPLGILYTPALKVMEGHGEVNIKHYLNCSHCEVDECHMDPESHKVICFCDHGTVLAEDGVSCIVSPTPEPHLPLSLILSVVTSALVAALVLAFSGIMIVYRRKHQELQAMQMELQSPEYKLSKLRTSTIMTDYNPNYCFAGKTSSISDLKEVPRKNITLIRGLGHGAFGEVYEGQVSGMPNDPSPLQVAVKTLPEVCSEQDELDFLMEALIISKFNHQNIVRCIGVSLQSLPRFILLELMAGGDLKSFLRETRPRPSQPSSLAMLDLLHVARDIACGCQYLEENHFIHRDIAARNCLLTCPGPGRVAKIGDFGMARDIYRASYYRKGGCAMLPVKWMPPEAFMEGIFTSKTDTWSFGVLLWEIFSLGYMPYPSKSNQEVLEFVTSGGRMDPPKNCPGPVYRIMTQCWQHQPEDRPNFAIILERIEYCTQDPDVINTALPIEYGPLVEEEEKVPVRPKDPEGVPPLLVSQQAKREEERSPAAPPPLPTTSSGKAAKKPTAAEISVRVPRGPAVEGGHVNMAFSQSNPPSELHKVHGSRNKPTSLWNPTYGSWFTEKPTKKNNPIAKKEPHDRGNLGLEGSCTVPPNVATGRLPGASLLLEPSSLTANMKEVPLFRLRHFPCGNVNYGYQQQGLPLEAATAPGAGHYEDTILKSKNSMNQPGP

EGFR(T790M) = EGFR(T790M) (Homo sapiens, UniProt P00533, T790M); test: biochemical; conditions: read-out: Percent control
Chain of EGFR(T790M) (P00533 25-1210 T790M): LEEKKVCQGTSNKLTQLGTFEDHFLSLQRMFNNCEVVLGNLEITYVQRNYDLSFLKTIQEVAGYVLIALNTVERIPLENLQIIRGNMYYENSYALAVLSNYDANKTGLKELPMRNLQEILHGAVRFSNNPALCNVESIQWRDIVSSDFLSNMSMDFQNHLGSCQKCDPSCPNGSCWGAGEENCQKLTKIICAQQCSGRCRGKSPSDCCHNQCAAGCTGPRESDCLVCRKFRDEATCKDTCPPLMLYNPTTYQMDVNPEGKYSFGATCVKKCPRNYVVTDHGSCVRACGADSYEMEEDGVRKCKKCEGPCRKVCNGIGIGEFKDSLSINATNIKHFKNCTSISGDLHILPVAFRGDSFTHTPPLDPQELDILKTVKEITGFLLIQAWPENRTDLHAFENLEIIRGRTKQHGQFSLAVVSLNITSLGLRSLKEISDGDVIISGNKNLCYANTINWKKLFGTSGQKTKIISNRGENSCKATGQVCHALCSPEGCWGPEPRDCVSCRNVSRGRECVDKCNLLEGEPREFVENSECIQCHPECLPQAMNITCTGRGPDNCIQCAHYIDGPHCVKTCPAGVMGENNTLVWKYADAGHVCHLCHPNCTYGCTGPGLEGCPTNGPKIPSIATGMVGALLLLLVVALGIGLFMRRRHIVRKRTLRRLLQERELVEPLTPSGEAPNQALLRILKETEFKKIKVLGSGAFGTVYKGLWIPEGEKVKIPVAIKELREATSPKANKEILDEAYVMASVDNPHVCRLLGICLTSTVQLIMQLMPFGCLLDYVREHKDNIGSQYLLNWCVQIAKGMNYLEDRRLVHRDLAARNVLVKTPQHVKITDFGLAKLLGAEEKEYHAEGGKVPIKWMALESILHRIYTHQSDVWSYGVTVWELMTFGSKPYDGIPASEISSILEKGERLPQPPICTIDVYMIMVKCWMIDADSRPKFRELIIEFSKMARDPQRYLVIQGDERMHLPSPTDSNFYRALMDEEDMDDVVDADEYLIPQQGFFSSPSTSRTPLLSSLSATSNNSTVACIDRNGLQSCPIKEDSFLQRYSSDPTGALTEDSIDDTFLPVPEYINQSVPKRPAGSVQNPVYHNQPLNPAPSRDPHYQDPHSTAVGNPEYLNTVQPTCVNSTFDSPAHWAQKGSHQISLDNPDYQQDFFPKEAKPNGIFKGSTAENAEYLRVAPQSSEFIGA

EGFR = EGFR (Homo sapiens, UniProt P00533); test: biochemical; conditions: read-out: Percent control
SRC = SRC (Homo sapiens, UniProt P12931); test: biochemical; conditions: read-out: Percent control
Chain of SRC (P12931 whole entry): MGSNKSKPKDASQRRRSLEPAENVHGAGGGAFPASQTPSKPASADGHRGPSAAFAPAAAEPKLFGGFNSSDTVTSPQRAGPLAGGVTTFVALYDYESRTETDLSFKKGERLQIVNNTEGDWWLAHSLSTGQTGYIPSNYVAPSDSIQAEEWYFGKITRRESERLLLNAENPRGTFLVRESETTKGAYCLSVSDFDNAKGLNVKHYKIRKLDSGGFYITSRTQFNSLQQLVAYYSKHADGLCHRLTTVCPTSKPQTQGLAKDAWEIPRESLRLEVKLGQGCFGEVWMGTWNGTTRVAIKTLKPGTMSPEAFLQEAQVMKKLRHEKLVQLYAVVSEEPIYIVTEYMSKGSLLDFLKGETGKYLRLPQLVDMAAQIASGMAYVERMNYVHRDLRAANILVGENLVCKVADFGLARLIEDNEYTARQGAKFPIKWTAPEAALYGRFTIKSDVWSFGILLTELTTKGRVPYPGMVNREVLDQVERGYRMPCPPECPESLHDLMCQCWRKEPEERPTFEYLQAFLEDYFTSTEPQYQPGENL

FRK = FRK (Homo sapiens, UniProt P42685); test: biochemical; conditions: read-out: Percent control
Chain of FRK (P42685 whole entry): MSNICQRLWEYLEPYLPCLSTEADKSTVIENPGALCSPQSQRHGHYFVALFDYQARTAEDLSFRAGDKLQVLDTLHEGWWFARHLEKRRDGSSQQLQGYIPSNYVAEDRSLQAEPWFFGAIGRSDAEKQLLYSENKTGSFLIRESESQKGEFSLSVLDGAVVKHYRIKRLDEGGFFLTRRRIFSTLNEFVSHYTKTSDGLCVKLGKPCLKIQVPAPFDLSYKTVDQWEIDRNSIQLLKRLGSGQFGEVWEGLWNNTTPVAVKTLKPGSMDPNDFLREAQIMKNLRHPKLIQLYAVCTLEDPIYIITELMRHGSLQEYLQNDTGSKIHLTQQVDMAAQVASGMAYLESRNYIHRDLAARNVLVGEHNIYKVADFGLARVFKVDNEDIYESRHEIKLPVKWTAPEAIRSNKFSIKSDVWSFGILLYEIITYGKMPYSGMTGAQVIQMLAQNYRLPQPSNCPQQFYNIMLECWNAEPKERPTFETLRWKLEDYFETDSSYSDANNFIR

DDR2 = target: T1, DDR2 (Homo sapiens, UniProt Q16832); test: biochemical; conditions: read-out: Percent control
T1 sequence (Q16832 22-855): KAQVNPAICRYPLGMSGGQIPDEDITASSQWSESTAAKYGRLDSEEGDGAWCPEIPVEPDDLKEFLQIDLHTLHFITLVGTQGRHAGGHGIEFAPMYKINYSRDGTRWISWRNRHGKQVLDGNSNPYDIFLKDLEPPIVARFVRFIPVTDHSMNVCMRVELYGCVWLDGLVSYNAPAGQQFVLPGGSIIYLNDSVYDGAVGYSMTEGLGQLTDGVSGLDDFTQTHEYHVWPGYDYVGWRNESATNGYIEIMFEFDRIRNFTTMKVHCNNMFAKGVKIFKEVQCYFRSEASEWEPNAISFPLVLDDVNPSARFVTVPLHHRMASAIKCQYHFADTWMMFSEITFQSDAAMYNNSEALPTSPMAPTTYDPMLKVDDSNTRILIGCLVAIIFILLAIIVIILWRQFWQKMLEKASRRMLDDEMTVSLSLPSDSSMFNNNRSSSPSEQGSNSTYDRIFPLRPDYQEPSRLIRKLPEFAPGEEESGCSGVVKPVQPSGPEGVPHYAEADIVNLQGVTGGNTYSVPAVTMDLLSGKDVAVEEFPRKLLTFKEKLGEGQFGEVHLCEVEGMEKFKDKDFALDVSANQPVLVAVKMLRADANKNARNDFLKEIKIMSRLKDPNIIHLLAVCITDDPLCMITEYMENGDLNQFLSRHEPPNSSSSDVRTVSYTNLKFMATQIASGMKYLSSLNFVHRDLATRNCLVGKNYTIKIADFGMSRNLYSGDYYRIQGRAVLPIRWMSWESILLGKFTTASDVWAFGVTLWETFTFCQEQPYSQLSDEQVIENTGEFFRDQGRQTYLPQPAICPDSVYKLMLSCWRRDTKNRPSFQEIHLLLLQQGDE

FLT3(D835Y) = target: T2, FLT3(D835Y) (Homo sapiens, UniProt P36888, D835Y); test: biochemical; conditions: read-out: Percent control
T2 sequence (P36888 27-993 D835Y): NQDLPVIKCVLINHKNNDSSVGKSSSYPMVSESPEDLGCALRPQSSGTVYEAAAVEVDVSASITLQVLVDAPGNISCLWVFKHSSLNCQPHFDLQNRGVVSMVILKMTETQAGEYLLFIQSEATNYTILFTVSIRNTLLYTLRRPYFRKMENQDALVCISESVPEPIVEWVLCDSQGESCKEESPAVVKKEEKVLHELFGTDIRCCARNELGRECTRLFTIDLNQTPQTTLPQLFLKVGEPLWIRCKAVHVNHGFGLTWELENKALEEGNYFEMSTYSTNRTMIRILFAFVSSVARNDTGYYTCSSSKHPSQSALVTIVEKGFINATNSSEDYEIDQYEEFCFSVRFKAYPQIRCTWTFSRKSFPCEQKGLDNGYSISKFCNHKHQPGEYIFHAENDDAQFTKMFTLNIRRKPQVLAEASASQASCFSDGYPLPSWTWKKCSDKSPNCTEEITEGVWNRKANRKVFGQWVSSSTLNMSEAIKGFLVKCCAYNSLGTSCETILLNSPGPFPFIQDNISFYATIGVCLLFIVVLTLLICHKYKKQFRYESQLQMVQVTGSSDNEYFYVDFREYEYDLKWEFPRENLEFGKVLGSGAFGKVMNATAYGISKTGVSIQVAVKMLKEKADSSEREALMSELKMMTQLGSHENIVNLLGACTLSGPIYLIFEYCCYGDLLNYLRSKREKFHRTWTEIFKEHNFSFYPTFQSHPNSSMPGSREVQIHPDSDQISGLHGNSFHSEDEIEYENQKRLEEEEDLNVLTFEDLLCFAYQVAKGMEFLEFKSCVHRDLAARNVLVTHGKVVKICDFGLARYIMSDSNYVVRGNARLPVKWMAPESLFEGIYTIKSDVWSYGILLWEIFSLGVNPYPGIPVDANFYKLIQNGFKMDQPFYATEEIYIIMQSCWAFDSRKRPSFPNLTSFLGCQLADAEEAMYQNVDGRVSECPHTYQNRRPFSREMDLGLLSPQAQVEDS

C#Cc1cccc(Nc2c3cc(OCCOC)c(OCCOC)cc3nc[n+]2[Pt@SP2-2]([NH3+])([NH3+])[Cl])c1 [2a, cisplatin-erlotinib]
Percent control [1]: 25% | Percent control [2]: 13% | Percent control [3]: 61% | Percent control [4]: 13% | Percent control (ABL1-phosphorylated): 16% | Percent control (ABL1-nonphosphorylated): 25% | Percent control (CSF1R): 91% | Percent control [5]: 0.9%

C#Cc1cccc(Nc2ncnc3cc(OCCOC)c(OCCOC)cc23)c1 [Erlotinib]
remaining activity at 10 µM [6]: 0.6% | remaining activity at 10 µM [7]: 5.8% | Papp A→B at 120 min, 10 μM (P-gp): 18.4 ×10⁻⁶ cm/s | Papp B→A at 120 min, 10 μM (P-gp): 74.2 ×10⁻⁶ cm/s | remaining activity at 10 µM (ALK): 10.7%

Cc1ccc(NC(=O)c2ccc(CN3CCN(C)CC3)cc2)cc1Nc1nccc(-c2cccnc2)n1 [Imatinib, reference compound]
remaining activity at 10 µM (EGFR(T790M)): 100% | remaining activity at 10 µM (EGFR): 100%

COc1cc2c(Nc3ccc(Br)cc3F)ncnc2cc1OCC1CCN(C)CC1 [Vandetanib, reference compound]
remaining activity at 10 µM (SRC): 0.7% | remaining activity at 10 µM (FRK): 1.7% | remaining activity at 10 µM (DDR2): 3.1% | remaining activity at 10 µM (FLT3(D835Y)): 7.7%
